Results as given in publication PMC10477886, “Adamantaniline Derivatives Target ATP5B to Inhibit Translation of Hypoxia Inducible Factor‐1α” (Advanced Science, 2023).

What was measured:
Type in all cases: cell-based, human
[1] = test system: HIF‐1α translation; assay: polysome profile analysis; details: HEK293T, 12 h with MG‐132, hypoxia
Experimental: Given that HI‐101 affected neither the transcription of HIF‐1α nor its degradation, we next tested whether HI‐101 regulated HIF‐1α translation. Polysome profile analysis is a commonly used method for studying translation process by separating polysomes and ribosomal subunits using a sucrose density gradient (SDG).^[ [53] ^] After treating with HI‐101 or DMSO for 12 h co‐incubated with MG‐132 under hypoxia condition, HEK293T cells were collected and polysome‐bound and polysome‐free mRNAs were isolated by using 10–50% sucrose gradient fractionation.
Polysome RNA preparations and analysis were carried out as previously described.^[ [60] ^] Briefly, cells were seeded in 10 cm dishes, and washed with cold PBS containing 100 µg mL^−1 cycloheximide, and then lysed in a hypotonic lysis buffer [5 mM tris‐HCl (pH 7.5), 2.5 mM MgCl2, 1.5 mM KCl, 100 µg mL^−1 cycloheximide, 2 mM DTT, 0.5% Triton X‐100, and 0.5% sodium deoxycholate]. A lysate sample was used to isolate the cytoplasmic RNA using TRIzol (Invitrogen). […] Gradients were fractionated, and the optical density at 260 nm was continuously detected by a UV detector and fraction collector (Teledyne ISCO). […] Fractions with mRNA associated with polysomes were pooled and HIF‐1α mRNA abundance was detected by RT‐PCR amplification in each fraction of the polysome gradient. […]

[2] = test system: HIF‐1α protein level; assay: western blot of HIF‐1α protein level in cells
Experimental: Cells were lysed with RIPA lysis (Epizyme, PC101) containing 1% cocktail protease inhibitors (MCE), and protein concentrations were determined by BCA kits (Beyotime, P0012S). Samples were denatured using DS‐PAGE Protein Staining and Loading Buffer (5×) (Beyotime, P0015L) followed by boiling for 10 min at 98 °C then the proteins were fractionated by 10% or 12.5% SDS‐PAGE and transferred to Cellulose Nitrate Membrane Filters (WHATMAN). After blocking in 5% non‐fat milk for 2 h at room temperature, the membrane was incubated overnight with specific antibodies at 4 °C, followed by horseradish peroxidase (HRP)‐linked anti‐mouse or anti‐rabbit secondary antibody (Cell Signaling Technology). Finally, An Immobilon Western Chemiluminescent HRP Substrate Kit (Merck Millipore) was used for protein bands detection. In addition, blots were probed with anti‐β‐actin (Merck, Darmstadt, Germany) antibody as the internal control.

[3] = test system: HIF‐1α protein synthesis; assay: AHA labeling assay of nascent HIF‐1α protein; details: HEK293T, hypoxia, 10 or 20 µM
Experimental: Lysosome and ubiquitin/proteasome systems are two main pathways for cellular protein degradation.^[ [49], [50] ^] MG‐132 and PS‐341 are potent, selective, and reversible proteasome inhibitors, chloroquine (CQ) and NH4Cl are autophagy inhibitors that inhibit lysosomal degradation by increasing lysosomal pH. MG‐132, PS‐341, CQ, NH4Cl, and DMSO at indicated concentrations were added to HEK293T cells for 6 h followed by treatment with DMSO or 10 µM HI‐101 for another 12 h under hypoxia condition. Cells were then collected, lysed, and immunoblotted to detect HIF‐1α protein level. […] In order to verify whether HI‐101 inhibited the synthesis of HIF‐1α protein, L‐azidohomoalanine (AHA) labeling assay^[ [51] ^] was carried out. The nascent protein was labeled by AHA incorporation, enriched by click reaction, and detected by anti‐biotin antibody.
HEK293T cells seeded in 10 cm dishes were added with DMSO or HI‐101 at concentrations 10 or 20 µM, then cultured in hypoxia incubator. The next day, cells were washed twice with PBS and incubated in DMEM without methionine for 4 h. At the same time, add […] (AHA) to all groups, and the positive control group treatment with cycloheximide (CHX). AHA concentration and incubation time were 50 µM and 4 h. […]

O=C(Nc1ccc(C23CC4CC(CC(C4)C2)C3)cc1)c1cccc(Cl)c1 [1‐3a, N‐(4‐((3r,5r,7r)‐Adamantan‐1‐yl)Phenyl)−3‐Chlorobenzamide]
HIF‐1α translation [1]: efficiently inhibited HIF‐1α translation | rate of HIF‐1α protein degradation ([2]; 10 µM with 100 µg mL^−1 CHX, hypoxia): did not have a significant effect on the rate of HIF‐1α protein degradation | HIF‐1α protein expression ([2]; ATP5A or ATP5B knocked down by shRNA, up to 30 µM): failed to decrease HIF‐1α protein expression | HIF‐1α protein level ([2]; hit confirmation, Figure S5): significantly reduced HIF‐1α protein level | HIF‐1α protein level ([2]; hypoxia): specifically reduced the protein level of HIF‐1α in a dose‐dependent manner | HIF‐1α protein synthesis (nascent, AHA labeled) [3]: significantly inhibited
